# Earlier results as cited in patent US20130280348A1, “Carbon dioxide and saline nasal delivery methods and treatments” (Glynn Tech, Inc., priority 2012, published 2013).
# What was measured:
# [1] = test system: seasonal allergic rhinitis (SAR); conditions: intranasal
# [2] = test system: nasal allergen challenge (grass or ragweed allergen) in subjects with SAR
structure (smiles),measurement,setting,value
"O=C=O [CO(2), carbon dioxide]",symptoms of seasonal allergic rhinitis (SAR),[1],reduce symptoms
same,histamine levels in ipsilateral nasal secretions,"[2]; after pretreatment with CO(2), increased significantly with sham treatment",did not increase
same,ipsilateral secretion weights,[2]; compared with no treatment,numerically reduced
same,sneezes,"[2]; compared with no treatment, 12 subjects with SAR, 20-second CO(2) exposure 30 minutes before challenge, p=0.05",significant reduction
same,bilateral runny nose symptoms,"[2]; compared with no treatment, p=0.01",significant reduction
same,"contralateral secretion weights (reflex secretory response to allergen, primary outcome)","[2]; compared with no treatment, p=0.04",significant reduction
same,sensation reported by subjects during exposure,[2]; during 20-second exposure to CO(2),transient burning sensation
same,acute response to allergen challenge,[2]; treatment with nasal CO(2),partial reduction
same,reflex responses,[2]; treatment with nasal CO(2),reduced
